Reference: patent US20230321123A1, “INHIBITORS OF PSEUDOMONAS AERUGINOSA VIRULENCE FACTOR LasB” (Helmholtz-Zentrum Für Infektionsforschung GmbH, priority 2020, published 2023)

Each compound was assayed against LasB (Pseudomonas aeruginosa, UniProt Q02RJ6) (assay: biochemical). Details: @ 50 μm.
Set-up: species or system P. aeruginosa

Chain of LasB (Q02RJ6 198-498): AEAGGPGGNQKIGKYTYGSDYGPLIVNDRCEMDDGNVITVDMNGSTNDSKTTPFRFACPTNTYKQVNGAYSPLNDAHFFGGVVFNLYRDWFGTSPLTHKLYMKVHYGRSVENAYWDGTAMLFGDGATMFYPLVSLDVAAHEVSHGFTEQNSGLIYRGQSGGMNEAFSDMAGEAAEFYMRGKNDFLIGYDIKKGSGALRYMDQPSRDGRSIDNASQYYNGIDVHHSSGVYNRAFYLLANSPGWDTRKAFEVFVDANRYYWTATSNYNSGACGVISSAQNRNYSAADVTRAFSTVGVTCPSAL

With O=C(CP(=O)(O)O)Nc1ccc(-c2ccc(Cl)cc2)cn1 [Example 90] the “inhibition of LasB” value was 31% inhibition @ 50 μm.

Same assay, conditions: IC50 against LasB

Point of comparison: COc1cccc(NC(=O)C(S)CC(C)C)c1 (stereo not drawn) [Example 33], IC50 560 ± 30 nM. Against it:
- CC(C)CC(C(=O)N[C@H]1CCCN(Cc2ccc(Cl)cc2)C1)P(=O)(O)O (mixture of isomers) [Example 147, (1-(((S)-1-(4-Chlorobenzyl)piperidin-3-yl)amino)-4-methyl-1-oxopentan-2-yl)phosphonic acid] — 9.2-fold higher, 5180 ± 530 nM
- O=C(Nc1ccccc1)C(S)Cc1ccccc1 (single isomer, unassigned) [Example 1 E1, 2-Mercapto-N,3-diphenylpropanamide] — 8.6-fold higher, 4800 ± 700 nM
- O=C(Nc1ccccc1)C(S)Cc1ccccc1 (single isomer, unassigned) [Example 1 E2, 2-Mercapto-N,3-diphenylpropanamide] — 1.8-fold higher, 1000 ± 100 nM
- Cc1cccc(NC(=O)C(S)Cc2ccccc2)c1 (stereo not drawn) [Example 7] — within error, 980 ± 430 nM
- O=C(Nc1ccc([N+](=O)[O-])cc1)C(S)Cc1ccccc1 (stereo not drawn) [Example 9] — 1.7-fold higher, 970 ± 100 nM
- O=C(Nc1ccccc1)C(S)Cc1ccc(O)cc1 (stereo not drawn) [Example 11] — 13-fold higher, 7300 ± 500 nM
- CC(S)C(=O)Nc1ccc(Cl)c(Cl)c1 (stereo not drawn) [Example 15] — 8-fold higher, 4500 ± 700 nM
- COc1ccc(NC(=O)C(C)S)cc1 (stereo not drawn) [Example 16] — 80-fold higher, 45000 ± 1000 nM
- CC(=O)c1ccc(NC(=O)C(C)S)cc1 (stereo not drawn) [Example 17] — 160-fold higher, 89000 ± 9000 nM
- CCC(S)C(=O)Nc1ccc(Cl)c(Cl)c1 (stereo not drawn) [Example 18] — 4.3-fold higher, 2400 ± 400 nM
- CCC(S)C(=O)Nc1ccc(OC)cc1 (stereo not drawn) [Example 19] — 7.5-fold higher, 4200 ± 600 nM
- CCC(S)C(=O)Nc1ccc(C(C)=O)cc1 (stereo not drawn) [Example 20] — 18-fold higher, 10000 ± 2000 nM
- CC(C)C(S)C(=O)Nc1ccc(Cl)c(Cl)c1 (stereo not drawn) [Example 21] — 4.5-fold higher, 2500 ± 300 nM
- COc1ccc(NC(=O)C(S)C(C)C)cc1 (stereo not drawn) [Example 22] — 29-fold higher, 16000 ± 1000 nM
- CC(=O)c1ccc(NC(=O)C(S)C(C)C)cc1 (stereo not drawn) [Example 23] — 39-fold higher, 22000 nM
- CCCC(S)C(=O)Nc1ccccc1 (stereo not drawn) [Example 24] — 8.6-fold higher, 4800 ± 400 nM
- CCCC(S)C(=O)Nc1ccc(C)cc1 (stereo not drawn) [Example 25] — 3.6-fold higher, 2000 ± 200 nM
- CCCC(S)C(=O)Nc1ccc(Cl)c(Cl)c1 (stereo not drawn) [Example 26] — 7.1-fold higher, 4000 ± 600 nM
- CCCC(S)C(=O)Nc1ccc(OC)cc1 (stereo not drawn) [Example 27] — 4.3-fold higher, 2400 ± 600 nM
- CCCC(S)C(=O)Nc1ccc(C(C)=O)cc1 (stereo not drawn) [Example 28] — 4.6-fold higher, 2600 ± 500 nM
- CCCCC(S)C(=O)Nc1ccc(Cl)c(Cl)c1 (stereo not drawn) [Example 29] — 12-fold higher, 6800 ± 1100 nM
- CCCCC(S)C(=O)Nc1ccc(OC)cc1 (stereo not drawn) [Example 30] — 5-fold higher, 2800 ± 300 nM
- CC(C)CC(S)C(=O)Nc1ccc(Cl)c(Cl)c1 (stereo not drawn) [Example 31] — 4.6-fold higher, 2600 ± 200 nM
- COc1ccccc1NC(=O)C(S)CC(C)C (stereo not drawn) [Example 32] — within 1.5-fold, 700 ± 40 nM
- COc1ccc(NC(=O)C(S)CC(C)C)cc1 (stereo not drawn) [Example 34] — 1.6-fold lower, 360 ± 110 nM
- CC(C)CC(S)C(=O)Nc1ccc(Cl)cc1 (stereo not drawn) [Example 38] — 1.5-fold higher, 840 ± 240 nM
- CC(=O)c1ccc(NC(=O)C(S)CC(C)C)cc1 (stereo not drawn) [Example 39] — within error, 690 ± 340 nM
- CC(C)CC(S)C(=O)Nc1ccccc1O (stereo not drawn) [Example 40] — 2.5-fold higher, 1400 ± 200 nM
- CCC(C)C(S)C(=O)Nc1ccc(Cl)c(Cl)c1 (stereo not drawn) [Example 43] — 13-fold higher, 7500 ± 200 nM
- CCC(C)C(S)C(=O)Nc1ccc(OC)cc1 (stereo not drawn) [Example 44] — 30-fold higher, 17000 ± 2000 nM
- COc1ccc(NC(=O)C(S)CC2CC2)cc1 (stereo not drawn) [Example 46] — 7-fold higher, 3900 ± 600 nM
- COc1ccc(NC(=O)C(S)CC2CCCCC2)cc1 (stereo not drawn) [Example 48] — 4.6-fold higher, 2600 ± 1200 nM
- COCC(S)C(=O)Nc1ccc(Cl)c(Cl)c1 (stereo not drawn) [Example 49] — 4.3-fold higher, 2400 ± 600 nM
- COCC(S)C(=O)Nc1ccc(OC)cc1 (stereo not drawn) [Example 50] — 30-fold higher, 17000 ± 1000 nM
- O=C(O)CC(S)C(=O)Nc1ccc(Cl)c(Cl)c1 (stereo not drawn) [Example 54] — 7-fold higher, 3900 ± 400 nM
- O=C(Nc1nc2ccccc2s1)C(S)Cc1ccccc1 (stereo not drawn) [Example 55] — within 1.5-fold, 750 ± 70 nM
- COc1ccc2nc(NC(=O)C(S)Cc3ccccc3)sc2c1 (stereo not drawn) [Example 56] — 1.7-fold higher, 950 ± 80 nM
- O=C(Nc1nc2ccccc2[nH]1)C(S)Cc1ccccc1 (stereo not drawn) [Example 61] — 14-fold higher, 7700 ± 1400 nM
- CC(C)CC(S)C(=O)Nc1nc2ccccc2s1 (stereo not drawn) [Example 62] — within error, 650 ± 140 nM
- CC(C)CC(C(=O)Nc1ccc(Cl)c(Cl)c1)P(=O)(O)O (stereo not drawn) [Example 64] — 22-fold lower, 26 ± 4 nM
- Cc1ccc(NC(=O)C(CC(C)C)P(=O)(O)O)c(F)c1 (stereo not drawn) [Example 65] — 4.8-fold lower, 116 ± 16 nM
- COc1ccc(NC(=O)C(CC(C)C)P(=O)(O)O)cc1 (stereo not drawn) [Example 66] — 11-fold lower, 52 ± 10 nM
- CC(=O)c1ccc(NC(=O)C(CC(C)C)P(=O)(O)O)cc1 (stereo not drawn) [Example 67] — 14-fold lower, 40 ± 12 nM
- CC(C)CC(C(=O)Nc1ccc(C(F)(F)F)cc1)P(=O)(O)O (stereo not drawn) [Example 68] — 22-fold lower, 26 ± 8 nM
- Cc1ccc(NC(=O)C(CC(C)C)P(=O)(O)O)c(C)c1 (stereo not drawn) [Example 69] — 6.7-fold lower, 84 ± 3 nM
- CC(C)CC(C(=O)Nc1ccc(F)cc1)P(=O)(O)O (stereo not drawn) [Example 70] — 6-fold lower, 93 ± 22 nM
- CC(C)CC(C(=O)Nc1ccc(Cl)cc1)P(=O)(O)O (stereo not drawn) [Example 71] — 12-fold lower, 48 ± 4 nM
- CC(C)CC(C(=O)Nc1ccc(Br)cc1)P(=O)(O)O (stereo not drawn) [Example 72] — 11-fold lower, 49 ± 2 nM
- CC(C)CC(C(=O)Nc1ccc(C#N)cc1)P(=O)(O)O (stereo not drawn) [Example 73] — 22-fold lower, 25 ± 1 nM
- CC(C)CC(C(=O)Nc1ccc(S(=O)(=O)C(F)(F)F)cc1)P(=O)(O)O (stereo not drawn) [Example 74] — 20-fold lower, 28 ± 6 nM
- CC(C)CC(C(=O)Nc1cccc2ccccc12)P(=O)(O)O (stereo not drawn) [Example 75] — 8.1-fold lower, 69 ± 8 nM
- CC(C)CC(C(=O)Nc1ccc2ccccc2c1)P(=O)(O)O (stereo not drawn) [Example 76] — 8.8-fold lower, 64 ± 10 nM
- CC(C)CC(C(=O)Nc1ccc2c(c1)CCC2)P(=O)(O)O (stereo not drawn) [Example 77] — 13-fold lower, 44 ± 4 nM
- Cc1ccc(NC(=O)C(Cc2ccccc2)P(=O)(O)O)cc1 (stereo not drawn) [Example 78] — 4.1-fold lower, 137 ± 33 nM
- O=C(Nc1ccc(C(F)(F)F)cc1)C(Cc1ccccc1)P(=O)(O)O (stereo not drawn) [Example 79] — 5.5-fold lower, 102 ± 1 nM
- Cc1ccc(NC(=O)C(CC2CCCCC2)P(=O)(O)O)cc1 (stereo not drawn) [Example 80] — 3.6-fold higher, 2030 ± 110 nM
- O=C(Nc1ccc(C(F)(F)F)cc1)C(CC1CCCCC1)P(=O)(O)O (stereo not drawn) [Example 81] — 3.3-fold higher, 1870 ± 30 nM
- CC(C)CC(C(=O)Nc1ccc(Cl)cn1)P(=O)(O)O (stereo not drawn) [Example 82] — within error, 501 ± 39 nM
- CC(C)CC(C(=O)Nc1ccc(Cl)nc1)P(=O)(O)O (stereo not drawn) [Example 83] — 2-fold higher, 1130 ± 20 nM
- CC(C)CC(C(=O)Nc1ccc(C(N)=O)nc1)P(=O)(O)O (stereo not drawn) [Example 84] — 2.5-fold lower, 223 ± 16 nM
- COC(=O)c1ccc(NC(=O)C(CC(C)C)P(=O)(O)O)cn1 (stereo not drawn) [Example 85] — 2.9-fold lower, 194 ± 11 nM
- CC(C)CC(C(=O)Nc1cnc(Cl)nc1)P(=O)(O)O (stereo not drawn) [Example 86] — within 1.5-fold, 498 ± 25 nM
- CC(C)CC(C(=O)Nc1cnc(Br)nc1)P(=O)(O)O (stereo not drawn) [Example 87] — within 1.5-fold, 384 ± 2 nM
- CC(C)CC(C(=O)Nc1ccc(Cl)nn1)P(=O)(O)O (stereo not drawn) [Example 88] — 34-fold higher, 18800 ± 740 nM
- CC(C)CC(C(=O)Nc1ccc(Br)nn1)P(=O)(O)O (stereo not drawn) [Example 89] — 14-fold higher, 7910 ± 390 nM
- CC(C)CC(C(=O)N1CCN(c2ccc(Cl)cc2)CC1)P(=O)(O)O (stereo not drawn) [Example 101] — 2.6-fold higher, 1450 ± 30 nM
- CC(C)CC(C(=O)N1CCN(c2ncc(Br)cn2)CC1)P(=O)(O)O (stereo not drawn) [Example 102] — 64-fold higher, 35800 ± 1750 nM
- CC(C)CC(C(=O)NC1CCN(c2ccc(Cl)cc2)CC1)P(=O)(O)O (stereo not drawn) [Example 103] — 3.4-fold higher, 1910 ± 110 nM
- CC(C)CC(C(=O)Nc1ccc(NS(=O)(=O)c2ccc3c(c2)CN(C(=O)C(F)(F)F)CC3)cc1)P(=O)(O)O (stereo not drawn) [Example 115] — 9.8-fold lower, 57 ± 3 nM
- CC(C)CC(C(=O)Nc1ccc(NC(=O)c2ccc(Cl)c(Cl)c2)cc1)P(=O)(O)O (stereo not drawn) [Example 118] — 22-fold lower, 25 ± 1 nM
- CC(C)CC(C(=O)Nc1ccc(NC(=O)C(Cc2ccccc2)c2ccccc2)cc1)P(=O)(O)O (stereo not drawn) [Example 120] — 19-fold lower, 30 ± 1 nM
- CC(C)CC(C(=O)Nc1ccc(NC(=O)c2nc(Cl)cs2)cc1)P(=O)(O)O (stereo not drawn) [Example 129] — 11-fold lower, 49 ± 2 nM
- CC(C)CC(C(=O)Nc1ccc(NC(=O)c2ccc(Cl)c(Cl)c2)cc1)P(=O)(O)O (stereo not drawn) [Example 137] — 14-fold lower, 41 ± 3 nM
- CC(C)CC(C(=O)NC1CCN(Cc2ccc(Cl)cc2)CC1)P(=O)(O)O (stereo not drawn) [Example 146] — 4.1-fold higher, 2270 ± 70 nM
- CC(C)CC(C(=O)N[C@@H]1CCCN(Cc2ccc(Cl)cc2)C1)P(=O)(O)O (stereo partly drawn) [Example 148] — 15-fold higher, 8360 ± 260 nM
- CC(C)C(CC(=O)N1CCN(Cc2ccc(-c3ccc(Cl)cc3)cc2)CC1)P(=O)(O)O (stereo not drawn) [Example 149] — 13-fold higher, 7280 ± 960 nM
- CC(C)CC(C(=O)N1CCN(Cc2ccc(-c3ccc(Cl)cc3)cc2)CC1)P(=O)(O)O (stereo not drawn) [Example 150] — 15-fold higher, 8660 ± 1110 nM
- CC(C)CC(C(=O)NC12CC(C(=O)Nc3ccc(Cl)c(Cl)c3)(C1)C2)P(=O)(O)O (stereo not drawn) [Example 151, (1-((3-((3,4-Dichlorophenyl)carbamoyl)bicyclo[1.1.1]pentan-1-yl)amino)-4-methyl-1-oxopentan-2-yl)phosphonic acid] — 1.6-fold lower, 347 ± 12 nM
- CC(C)CC(C(=O)N[C@@H](C)C(=O)Nc1ccc(Cl)c(Cl)c1)P(=O)(O)O (stereo partly drawn) [Example 153] — 9-fold lower, 62 ± 2 nM
- CC[C@H](C)[C@H](NC(=O)C(CC(C)C)P(=O)(O)O)C(=O)Nc1ccc(Cl)c(Cl)c1 (stereo partly drawn) [Example 154] — 43-fold lower, 13 ± 1 nM
- CC(C)CC(C(=O)N[C@@H](CC(C)C)C(=O)Nc1ccc(Cl)c(Cl)c1)P(=O)(O)O (stereo partly drawn) [Example 155] — 9.3-fold lower, 60 ± 2 nM

Same assay, conditions: IC50 against LasB (Table 16), heteropentacycles and benzannulated heteropentacycles

For CC(C)CC(C(=O)N[C@H](c1ncc(-c2ccc(Cl)c(Cl)c2)[nH]1)C(C)C)P(=O)(O)O (mixture of isomers) [Example 171, (1-(((S)-1-(5-(3,4-dichlorophenyl)-1H-imidazol-2-yl)-2-methylpropyl)amino)-4-methyl-1-oxopentan-2-yl)phosphonic acid], the IC50 was 6000 ± 200 nM.

Same assay, conditions: read-out: IC50 against LasB

Point of comparison: Cc1ccc(CC(S)C(=O)Nc2ccccc2)cc1 (stereo not drawn) [Example 13], IC50 2800 ± 300 nM. Against it:
- Cc1ccccc1NC(=O)C(S)Cc1ccccc1 (stereo not drawn) [Example 6] — within error, 2400 ± 1000 nM
- O=C(Nc1ccccc1)C(S)Cc1ccc(O)c([N+](=O)[O-])c1 (stereo not drawn) [Example 12] — within error, 2500 ± 100 nM
- O=C(Nc1ccc(Cl)c(Cl)c1)C(S)CC1CC1 (stereo not drawn) [Example 45] — 2.2-fold higher, 6300 ± 1200 nM
- O=C(Nc1ccc(Cl)c(Cl)c1)C(S)CC1CCCCC1 (stereo not drawn) [Example 47] — 4.3-fold higher, 12000 ± 3000 nM
- O=C(Nc1nc2ccc(Cl)cc2s1)C(S)Cc1ccccc1 (stereo not drawn) [Example 57] — within error, 2400 ± 200 nM
- O=C(Nc1nccs1)C(S)Cc1ccccc1 (stereo not drawn) [Example 58] — 1.8-fold lower, 1600 ± 100 nM
- COC(=O)c1ccsc1NC(=O)C(S)Cc1ccccc1 (stereo not drawn) [Example 59] — 2.9-fold higher, 8000 ± 1000 nM
- O=C(Nc1cccnc1)C(S)Cc1ccccc1 (stereo not drawn) [Example 60] — 2.3-fold lower, 1200 ± 100 nM
